Results reported in US11648291B2, “Method of using PRD, PRD-S TAD, ZF7 peptide or mixture thereof to inhibit cellular response to inflammatory stimuli or treat cytokine-storm-mediated diseases” (GUANGZHOU MEDICAL UNIVERSITY, priority 2020, dated 2023).
“And” between values parts separate entries of the source, which are not always exact repeats. Identical values can stand only once.

Tests used:
[1] = tested on: cellular response to TNFα, IL-1β, and LPS; experiment: Cellular response to TNFα, IL-1β and LPS, data not shown (control peptide, biotin-tagged peptides); format: cell-based; settings: for effect of biotin on the activity of the peptide: biotin attached to the N-terminus
From the text: (§1) In order to test the hypotheses that the PRD and TAD peptides inhibit the response to pro-inflammatory stimuli such as TNFα, IL-1β, and LPS, the peptides were synthesized and transfected into HCT-8 cells using a protein transfection reagent (Pierce). […] Next, we tested whether they can inhibit the expression of genes induced by TNFα, IL-1β, and LPS in human PBMCs. Both peptides indeed inhibited the expression of IL-6, IL-1β, IL-8, and arginase induced by TNFα, IL-1β, or LPS (FIG. 4B). Since both peptides are highly hydrophobic, we tested whether they can penetrate cells. Indeed, both peptides inhibited TNFα- or IL-1β-induced IL-8 expression with or without the transfection agent in HCT-8 cells, although it took more peptides to produce the similar level of inhibition (FIG. 4C, left panel). […] We tested a random peptide sequence ([…], SEQ ID NO:41) as a control and it had no effect on the cellular response to TNFα, IL-1β, and LPS (data not shown).
(§2) Recent findings identified the ZF7 (zinc finger domain 7) as the key domain for A20 to suppress inflammation (FIG. 6A). We hypothesized that ZF7 peptide inhibit the TNFα response just as PRD and TAD peptides do. […] Next, we tested whether ZF7 inhibits LPS response in vivo. We injected mice with a high dose of LPS (200 μg/mouse) or LPS+ZF7 (200 μg/mouse) and collected the sera after 3 hours. […] In order to tract ZF7 peptide inside cells, biotin was attached to the N-terminus to ZF7 peptide.

[2] = tested on: TNFα-induced IL-8 expression in HCT-8 cells; experiment: TNFα/IL-1β-induced IL-8 expression in HCT-8 cells (IL-8 ELISA); format: cell-based, human; settings: for expression of IL-8 by the peptides themselves: no stimulus; for TNFα- or IL-1β-induced IL-8 expression: HCT-8, with or without the transfection agent, 1 μg/ml, TNFα 2 ng/ml or IL-1β 1 ng/ml, more peptide needed without transfection
Description: The indicated amount of the peptides was transfected into HCT-8 as described in the method. The transfected cells were stimulated with TNFα (4 hours after peptide transfection) for 24 hours. IL-8 expression was measured by ELISA. The results are the representative of 3 similar experiments.
(§3) HCT-8 cells were transfected with the peptides or just treated with them without transfection (1 μg/ml) and stimulated with TNFα (2 ng/ml) or IL-1-β (1 ng/ml) for 24 hours. PMBCs were treated with the indicated amount of each peptide (no transfection) and stimulated with TNFα (2 ng/ml) for 24 hours. IL-8 expression was measured by ELISA. The results are the representative of 2 similar experiments.
HCT-8 cells were stimulated with TNFα (2 ng/ml) with the indicated amount of PRD-S peptide for 24 hours. IL-8 expression was measured by ELISA.
Human PBMCs and THP-1 cells were cultured in RPMI-1640 while FLS and HCT-8 cells in DMEM, supplemented with 10% fetal bovine serum and maintained in a humidified incubator at 37° C. with 5% CO2 in air.
(§4) IL-8 LEISA kit was purchased from ThermoFisher and ELISA was performed according to the manufacturer's instruction.
Peptides were transfected into the cells using Pierce Protein Transfection Reagent Kit™ according to the manufacturer's instruction. The Pierce Reagent in methanol was pipetted into a tube and the solvent was evaporated in the hood. Peptides were diluted in PBS and mixed with the dried Pierce Reagent. The peptides/Reagent complex was added to the cells in serum-free medium. After 4 hours, the medium containing serum was added to the cells and the cells were used for experiments.
as §1
Based on the sequence analysis of the YAP1 mutants (FIG. 2A), we tested whether the shortest PRD peptide (M1) inhibits the TNFα response. We named this peptide as PRD-S(small).
as §2

[3] = tested on: TNFα response in HCT-8 cells (C, A20 KD, YAP KD); experiment: TNFα response (IL-8 ELISA) in control, A20 KD and YAP KD HCT-8 cells; format: cell-based, human; settings: TNFα 2 ng/ml overnight
Description: HCT-8 cells (C, A20 KD, YAP KD) were treated with PRD, TAD, or ZF7 peptide (1 μg/ml) and stimulated with TNFα (2 ng/ml) overnight. IL-8 levels in the medium were measured by ELISA. The results are the representative of 2 similar experiments. IL-8 LEISA kit was purchased from ThermoFisher and ELISA was performed according to the manufacturer's instruction. Next, we investigated how PRD, TAD, and ZF7 peptides inhibit the TNFα response. The PRD, TAD, and ZF7 peptides have the same effect as either YAP9 OE (over-expression) or A20 OE, respectively. Since YAP9 OE or A20 OE is futile in the absence of the other (FIGS. 5B and 5C), PRD or TAD peptide should also require the presence of A20 while ZF7 peptide the presence of YAP9. Indeed, our data supported this notion. When both YAP9 and A20 are present (C), all 3 peptides inhibited the TNFα response.

[4] = tested on: gene expression induced by TNFα, LPS, or IL-1β in human PBMCs; experiment: Gene expression induced by TNFα, LPS or IL-1β in human PBMCs (ELISA, LegendPlex); format: cell-based; settings: transfected PRD 1 μg or TAD 0.5 μg, TNFα 2 ng/ml, LPS 50 ng/ml or IL-1β 2 ng/ml, 24 hours
Description: PBMCs were transfected with either PRD (1 μg) or TAD (0.5 μg) as described in the method. The transfected cells were stimulated with TNFα (2 ng/ml), LPS (50 ng/ml), or IL-1β (2 ng/ml), 4 hours after peptide transfection, for 24 hours. IL-8 expression was measured by ELISA and IL-6, IL-1β, and arginase levels were measured by flow cytometry using LegendPlex as described in the method. The results are the representative of 3 similar experiments.
as §3, §4
All steps of PBMC preparation were carried out at room temperature. The blood from the same donor was pooled and mixed 1:1 with pre-warmed (room temperature) 1×PBS (without Ca^2+ or Mg^2+). […]
To simultaneously quantify the concentration of the soluble inflammatory cytokines and chemokines, the cell culture supernatant was analyzed by using the bead-based multiplex LEGENDplex™ (Biolegend) according to the manufacturer's instruction. […]

LPS-induced mortality = LPS-induced mortality in mice; format: in vivo, mice (C57B/6); settings: mice n=5, LPS 200 μg + ZF7 300 μg i.p., observed 7 days; LPS control group 60% mortality
Description: Mice (8-week old, C57B/6, n=5) were injected with LPS (200 μg) or LPS (200 μg)+ZF7 (300 μg) in 200 μl PBS intraperitoneally.
Since ZF7 inhibited LPS-induced cytokine production in mice (Table 1), we next tested whether ZF7 peptide can protect mice from LPS-induced mortality.

LPS response in mice = experiment: LPS response in mice: serum cytokines and chemokines by LegendPlex (Table 1); format: in vivo, C57BL/6 mice
Description: as §2
Table.1 ZF7 peptide inhibits the LPS response in mice. C57BL/6 mice (n=2) were injected intraperitoneally with LPS (200 μg/mouse) or LPS (200 μg/mouse)+ZF7 peptide (200 μg/mouse) and the sera were collected after 3 hours. The cytokines and chemokines in the sera were measured by LegendPlex according to the manufacturer's instruction. The number represents pg/ml.

[5] = HCT-8, peptides transfected, TNFα 24 hours, ELISA
[6] = control HCT-8 (both YAP9 and A20 present), peptide 1 μg/ml
[7] = serum 3 hours after i.p. LPS 200 μg/mouse + ZF7 200 μg/mouse, one line per mouse (n=2)

ARNDCEQGHILKMFPSTWYV [random peptide sequence, reference compound]
effect on the cellular response to TNFα, IL-1β, and LPS ([1]; control peptide): no effect

GQPPSQPPQGQGPPSGPGQPAPAATQAAPQ (listed as Homo sapiens) [PRD]
TNFα-induced IL-8 expression [2, 5]: suppressed
expression of IL-8 by the peptides themselves ([2]; HCT-8, peptides transfected): did not affect
TNFα- or IL-1β-induced IL-8 expression ([2]; 24 hours): inhibited
effect of biotin on the activity of the peptide [1]: did not affect the activity
TNFα response (IL-8) ([3]; A20 KD HCT-8, peptide 1 μg/ml): significantly less effective
TNFα response (IL-8) ([3]; YAP KD HCT-8, peptide 1 μg/ml): retained their full inhibitory capacity
TNFα response (IL-8) [3, 6]: inhibited
expression of IL-6, IL-1β, IL-8, and arginase induced by TNFα, IL-1β, or LPS [4]: inhibited

PPKQRCRAPACDHFGNAKCNGYCNECYQFKQMYG (listed as Homo sapiens) [ZF7]
TNFα response (IL-8 ELISA) ([2]; HCT-8, without transfection, TNFα 2 ng/ml overnight): significantly inhibited
LPS-induced mortality (LPS-induced mortality): no mortality
effect of biotin on the activity of the peptide [1]: did not affect the activity
all the cytokines and chemokines measured in sera (LPS response in mice; mice, LPS 200 μg/mouse + ZF7 200 μg/mouse, sera after 3 hours): almost completely inhibited
CCL2 (LPS response in mice; [7]): 238.13 pg/mL and 222.5 pg/mL
GMCSF (LPS response in mice; [7]): <18.38 pg/mL
IFNβ (LPS response in mice; [7]): <4.36 pg/mL
IFNγ (LPS response in mice; [7]): <0.53 pg/mL and 87.58 pg/mL
IL1-β (LPS response in mice; [7]): <4.33 pg/mL and 14.99 pg/mL
IL-1α (LPS response in mice; [7]): <26.12 pg/mL and 57.24 pg/mL
IL-6 (LPS response in mice; [7]): 4142.37 pg/mL and 1570.50 pg/mL
IL-10 (LPS response in mice; [7]): <9.48 pg/mL and 65.31 pg/mL
IL-17A (LPS response in mice; [7]): <4.47 pg/mL and 129.84 pg/mL
IL-27 (LPS response in mice; [7]): <8.56 pg/mL and 137.96 pg/mL
TNFα (LPS response in mice; [7]): <4.10 pg/mL and 44.45 pg/mL
TNFα response (IL-8) ([3]; A20 KD HCT-8, peptide 1 μg/ml): retained its full inhibitory capacity
TNFα response (IL-8) ([3]; YAP KD HCT-8, peptide 1 μg/ml): ineffective
TNFα response (IL-8) [3, 6]: inhibited

QPPGQGPPSGPGQPA (listed as Homo sapiens) [PRD-S]
TNFα-induced IL-8 expression ([2]; HCT-8, PRD-S without transfection, TNFα 2 ng/ml, 24 hours): inhibited TNFα-induced IL-8 expression in a dose-response manner

RQAMRININPSTANSPKCQE (listed as Homo sapiens) [TAD]
relative potency in suppressing TNFα-induced IL-8 expression ([2]; HCT-8, peptides transfected): more potent than PRD peptide
TNFα-induced IL-8 expression [2, 5]: suppressed
expression of IL-8 by the peptides themselves ([2]; HCT-8, peptides transfected): did not affect
TNFα- or IL-1β-induced IL-8 expression ([2]; 24 hours): inhibited
effect of biotin on the activity of the peptide [1]: did not affect the activity
TNFα response (IL-8) ([3]; A20 KD HCT-8, peptide 1 μg/ml): significantly less effective
TNFα response (IL-8) ([3]; YAP KD HCT-8, peptide 1 μg/ml): retained their full inhibitory capacity
TNFα response (IL-8) [3, 6]: inhibited
expression of IL-6, IL-1β, IL-8, and arginase induced by TNFα, IL-1β, or LPS [4]: inhibited
